Test results taken from patent US20220323443A1, “COMBINATION THERAPY FOR CANCER TREATMENT” (TAKEDA PHARMACEUTICAL COMPANY LIMITED, priority 2019, published 2022).

Columns and labels:
HCT116 cancer cells = experiment: In vitro combination study with Compound 1, Cell Titer-Glo (ATP) cell viability, 72 h; type: cell-based; details: DNA damaging agent combined with Compound 1; 72 h;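 also: combination call from 10×10 dose matrices in duplicate, graded by synergy, with percent activity per well relative to DMSO vehicle controls on the same plate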
COLO205 cancer cells = experiment: as above; type: cell-based, human; details: DNA damaging agent combined with Compound 1; 72 h;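 also: Ten-by-ten dose matrices of both agents in duplicate plus single-agent dilutions, luminescent ATP read-out, percent activity per well relative to DMSO vehicle wells, synergy call from these matrices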
Panc02 (Pancreatic) = experiment: In vivo combination study, syngeneic mouse tumor isograft model
Description: (§1) To investigate in vivo antitumor activity of Compound 1 in combination with other agents, tests using Cell Derived Xenograft (CDX), Patient Derived Xenograft (PDX) and Syngeneic mouse tumor isograft model were conducted. Cells or Patient Derived Tumors were inoculated by one method of the following two methods (Method A and B) as shown Table 7.
(§2) Method A; Cells were maintained in either immune deficient nude mice or immune competent mice by subcutaneous inoculation of tumor cells at various concentrations into respected mice. Method B: Patient Derived Tumor s were maintained in nude mice by subcutaneous inoculation of tumor pieces (approx. 2×2×2 mm) into nude mice. Mice with tumor size of approximately 50 mm^3 (e.g., 40-75 mm^3) for syngeneic mouse studies or 200 mm^3 (e.g., 110-270 mm^3) for xenograft studies were randomly assigned to dose groups on the day (Day 0) before start date of dosing.
(§3) Compound 1 (crystalline form I) was suspended in 0.5 w/v % methylcellulose and administered orally to mice. Antibodies which administered in the experiment were described in Table 8.
(§4) Tumor size was measured by caliper and tumor volume was estimated using the equation V=(LW^2)/2, where L and W are tumor length and width, respectively and reported in cubic millimeters.
(§5) These values were compared across treatment groups to assess whether the differences in the trends over time were statistically significant. To compare pairs of treatment groups, the following mixed-effects linear regression model was fit to the data using the maximum likelihood method:
(§6) For synergy analyses, the observed differences in the log tumor values were used to calculate AUC values for each animal. In instances when an animal in a treatment group was removed from the study, the last observed tumor value was carried forward through all subsequent time points. The AUC for the control, or vehicle, group was calculated using the predicted values from the pairwise models described above. We defined a measure of synergy as follows:
(§7) where Ak and Bk are the k^th animal in the individual treatment groups and ABk is the k^th animal in combination treatment group. AUCcd is the model-predicted AUC for the control group and was treated as a constant with no variability. The standard error of the synergy score was calculated as the square root of the sum of squared standard errors across groups A, B, and AB. The degrees of freedom were estimated using the Welch-Satterthwaite equation. A hypothesis test was performed to determine if the synergy score differed from 0. P values were calculated by dividing the synergy score by its standard error and tested against a t-distribution (two-tailed) with the above-calculated degrees of freedom.
(§8) The effect was classified into four different categories. It was considered synergistic if the synergy score was less than 0 and additive if the synergy score wasn't statistically different from 0. If the synergy score was greater than zero, but the mean AUC for the combination was lower than the lowest mean AUC among the two single agent treatments, then the combination was sub-additive. If the synergy score was greater than zero, and the mean AUC for the combination was greater than the mean AUC for at least one of the single agent treatments, then the combination was antagonistic.

A549 cancer cells = experiment: In vitro combination study with Compound 1, Cell Titer-Glo (ATP) cell viability, 72 h; type: cell-based; details: DNA damaging agent combined with Compound 1; 72 h;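 also: Ten-by-ten dose matrices of the two agents in duplicate, compounds added 16 h post-plating, activity relative to DMSO vehicle wells, call reflects synergy evaluation from luminescence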
Description: (§10) Each combination pair was evaluated in an individual 384-well plate which contained variable doses of both compounds as single agents, as well as two, ten-by-ten matrices (in duplicate) that contained mixtures of the two test compounds. In brief, compounds were added to the cell test plates 16 hours after cell plating and then assessed for viability 72 hours later. Continuous cultures of tumor cells were maintained under standard cell culturing conditions (i.e. in a humidified chamber set at 37° C., containing atmosphere 5% carbon dioxide). […] Seventy-two hours after compound addition, ATP levels were measured to assess cell viability. Plating densities were chosen to ensure optimal linear growth over the 72 hour period.
(§11) Compound dilution and compound delivery to the assay plates were done on HighRes Robotic System (HighRes Biosolutions, Woburn, Mass., USA) with Echo™ Liquid Handler (Labcyte, Sunnyvale, Calif., USA). […] Next, these were used for compound transfer into cell assay plates. All wells were back-filled to give a constant percentage of DMSO.
(§12) The final DMSO concentration was held constant in all wells across the plate and was maintained at less than 0.5%. […] Cells treated with vehicle (DMSO) in two rows, or single compound serial dilutions in one plate columns/row served as the untreated control and single compound controls, respectively.
(§13) Compound activity in A549, COLO205, H460, HCT116, SW48, SW620 cancer cell lines was assessed using Cell Titer-Glo® (Promega [Madison, Wis., USA]). After 72 hours incubation, the plates were treated as per package insert protocol for the Promega Luminescence ATP Detection Systems. Briefly, 25 μL of cell lysis/substrate solution (provided in kit form) was added to each well and the plate was incubated at room temperature for 10 minutes. Luminescence was measured using a PHERAstar multi-label counter (BMG Labtech [Ortenberg, Germany]) or LEADseeker (GE Healthcare Life Sciences [Piscataway, N.J., USA]).
(§14) Numerical luminescence values were analyzed to generate EC50 curves and evaluate synergy. Raw Data reader files were uploaded along with automation workfiles that defined the plate and well contents. Percent activities were calculated for each well versus plate controls.
(§15) Each plate representing a single drug combination was analyzed separately. First, the viability measurements were normalized by scaling the data so that the median of the negative controls was 0 and the median of the positive controls was 100.
(§16) For the combination analysis, a response surface model was used to describe the relationship between the normalized viability and the drug concentrations. The data were fit to the model by minimizing the residual sum of squares. Based on the fitted response surface, plots of constant viability, called isobolograms, were produced.
(§17) The Combination Index and Nonlinear Blending were used as measures of drug synergy. To calculate Combination Index the 50% isobologram (which is the dose contour that has 50% viability) was used. […] A standard procedure was created to produce a call in order to characterize the viability effects for each combination (synergy, additivity, subadditivity, or antagonism). If the Combination Index existed then these measures were used to make the call.

H-1650 (Lung) = experiment: In vitro combination study for selected compounds, additional cell lines; type: cell-based; details: drug combined with Compound 1
Description: (§9) In vitro anti-proliferative effects of selected compounds were tested in additional cell lines, including ovarian cancer (SKOV3) and pancreatic cancer (MIA-PACA-2) cell lines.

CALU6 (Lung) = experiment: as above; type: cell-based; details: drug combined with Compound 1
Description: as §9

[1] = tested on: ovarian cancer (SKOV3) cell line; experiment: as above; type: cell-based; details: drug combined with Compound 1
Description: as §9

H460 cancer cells = experiment: In vitro combination study with Compound 1, Cell Titer-Glo (ATP) cell viability, 72 h; type: cell-based; details: DNA damaging agent combined with Compound 1; 72 h;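 also: Ten-by-ten dose matrices of both drugs alongside single-agent dilutions, luminescence read 72 hours after compound addition, percent activity per well versus vehicle (DMSO) plate controls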
Description: as §10, §11, §12, §13, §14, §15, §16, §17

SW620 cancer cells = experiment: as above; type: cell-based; details: DNA damaging agent combined with Compound 1; 72 h;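 also: Ten-by-ten dose matrices of both drugs in 384-well plates, luminescent ATP read-out, synergy evaluated against single-agent and DMSO vehicle controls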
[2] = tested on: PHTX-249Pa human primary pancreatic xenografts; experiment: In vivo combination study, Patient Derived Xenograft; parameters: species or system mouse
Description: as §1, §2, §3, §4, §5, §6, §7, §8

PHTXM-97Pa (Pancreatic) = experiment: as above; parameters: species or system mouse
Description: as §1, §2, §3, §4, §5, §6, §7, §8

DU-145 (Prostate) = experiment: In vivo combination study, Cell Derived Xenograft; parameters: species or system mouse; details: DU-145 (165 mm^3); Compound 1 60 mg/kg once daily Day 1-21; drug 40 mg/kg intraperitoneally Days 1,4,8,11,15,18
Description: as §1
Method A; Cells were maintained in either immune deficient nude mice or immune competent mice by subcutaneous inoculation of tumor cells at various concentrations into respected mice. Method B: Patient Derived Tumor s were maintained in nude mice by subcutaneous inoculation of tumor pieces (approx. 2×2×2 mm) into nude mice. […]
Tumor size was measured by caliper and tumor volume was estimated using the equation V=(LW^2)/2, where L and W are tumor length and width, respectively and reported in cubic millimeters. […]
For synergy analyses, the observed differences in the log tumor values were used to calculate AUC values for each animal. […] The AUC for the control, or vehicle, group was calculated using the predicted values from the pairwise models described above. […]
where Ak and Bk are the k^th animal in the individual treatment groups and ABk is the k^th animal in combination treatment group. […] The standard error of the synergy score was calculated as the square root of the sum of squared standard errors across groups A, B, and AB. […]

Compound: Nc1ccn([C@@H]2O[C@H](CO)[C@@H](O)C2(F)F)c(=O)n1 [Gemcitabine]
- Call, anti-proliferative effect of combination with Compound 1, HCT116 (HCT116 cancer cells): Additivity (0.7 to 1.3)
- Call, anti-proliferative effect of combination with Compound 1, COLO205 (COLO205 cancer cells): Additivity (0.7 to 1.3)
- Result (combination with Compound 1, tumor growth) (Panc02 (Pancreatic); Panc02 (75 mm^3), Compound 1 60 mg/kg orally QD day 0-20, drug 5 mg/kg intraperitoneally QD on Day 0,3,6,9,12): Additive
- CR per group (Panc02 (Pancreatic); note to Table 9, by note order: Gemcitabine study in Panc02 (75 mm^3)): 0 CR in Gemcitabine group and 0 CR in Compound 1 group, and 0 CR in Compound 1/Gemcitabine combo group
- Call, anti-proliferative effect of combination with Compound 1, A549 (A549 cancer cells): Antagonism (>2)
- In vitro combination effect with Compound 1, Lung H-1650 (H-1650 (Lung)): Antagonism
- In vitro combination effect with Compound 1, Lung CALU6 (CALU6 (Lung)): Additive
- In vitro combination effect with Compound 1, Ovary SKOV3 [1]: Additive
- Call, anti-proliferative effect of combination with Compound 1, H460 (H460 cancer cells): Subadditivity (1.3 to 2)
- Call, anti-proliferative effect of combination with Compound 1, SW620 (SW620 cancer cells): Additivity (0.7 to 1.3)
- Result (combination with Compound 1, tumor growth) ([2]; PHTX-249Pa (165 mm^3), Compound 1 40 mg/kg once daily Day 1-21, drug 20 mg/kg intraperitoneally Days 1,4,8,11,15,18): Additive
- Result (combination with Compound 1, tumor growth) ([2]; PHTX-249Pa (165 mm^3), Compound 1 40 mg/kg once daily Day 1-21, drug 40 mg/kg intraperitoneally Days 1,4,8,11,15,18): subadditive
- Result (combination with Compound 1, tumor growth) ([2]; PHTX-249Pa (165 mm^3), Compound 1 60 mg/kg once daily Day 1-21, drug 20 mg/kg intraperitoneally Days 1,4,8,11,15,18): Additive
- Result (combination with Compound 1, tumor growth) ([2]; PHTX-249Pa (165 mm^3), Compound 1 60 mg/kg once daily Day 1-21, drug 40 mg/kg intraperitoneally Days 1,4,8,11,15,18): subadditive
- Result (combination with Compound 1, tumor growth) ([2]; PHTX-249Pa (180 mm^3) FIG. 6A, Compound 1 20 mg/kg once daily Day 1-21, drug 5 mg/kg intraperitoneally Days 1,4,8,11,15,18): Synergistic
- Result (combination with Compound 1, tumor growth) ([2]; PHTX-249Pa (180 mm^3) FIG. 6A, Compound 1 20 mg/kg once daily Day 1-21, drug 20 mg/kg intraperitoneally Days 1,4,8,11,15,18): Additive
- Result (combination with Compound 1, tumor growth) ([2]; PHTX-249Pa (180 mm^3) FIG. 6A, Compound 1 40 mg/kg once daily Day 1-21, drug 5 mg/kg intraperitoneally Days 1,4,8,11,15,18): Additive
- Result (combination with Compound 1, tumor growth) ([2]; PHTX-249Pa (180 mm^3) FIG. 6A, Compound 1 40 mg/kg once daily Day 1-21, drug 20 mg/kg intraperitoneally Days 1,4,8,11,15,18): subadditive
- antitumor activity ([2]; combined with Compound 1, PHTX-249 Pa human primary pancreatic xenografts, FIG. 6A): strong antitumor activity compared to either single treatment alone
- Result (combination with Compound 1, tumor growth) (PHTXM-97Pa (Pancreatic); PHTXM-97Pa (180 mm^3), Compound 1 20 mg/kg once daily Day 1-21, drug 5 mg/kg intraperitoneally Days 1,4,8,11,15,18): subadditive
- Result (combination with Compound 1, tumor growth) (PHTXM-97Pa (Pancreatic); PHTXM-97Pa (180 mm^3), Compound 1 20 mg/kg once daily Day 1-21, drug 20 mg/kg intraperitoneally Days 1,4,8,11,15,18): Additive
- Result (combination with Compound 1, tumor growth) (PHTXM-97Pa (Pancreatic); PHTXM-97Pa (180 mm^3), Compound 1 40 mg/kg once daily Day 1-21, drug 5 mg/kg intraperitoneally Days 1,4,8,11,15,18): subadditive
- Result (combination with Compound 1, tumor growth) (PHTXM-97Pa (Pancreatic); PHTXM-97Pa (180 mm^3), Compound 1 40 mg/kg once daily Day 1-21, drug 20 mg/kg intraperitoneally Days 1,4,8,11,15,18): subadditive
- Result (combination with Compound 1, tumor growth) (PHTXM-97Pa (Pancreatic); PHTXM-97Pa (210 mm^3), Compound 1 40 mg/kg once daily Day 1-21, drug 20 mg/kg intraperitoneally Days 1,4,8,11,15,18): subadditive
- Result (combination with Compound 1, tumor growth) (PHTXM-97Pa (Pancreatic); PHTXM-97Pa (210 mm^3), Compound 1 40 mg/kg once daily Day 1-21, drug 40 mg/kg intraperitoneally Days 1,4,8,11,15,18): subadditive
- Result (combination with Compound 1, tumor growth) (PHTXM-97Pa (Pancreatic); PHTXM-97Pa (210 mm^3), Compound 1 60 mg/kg once daily Day 1-21, drug 20 mg/kg intraperitoneally Days 1,4,8,11,15,18): subadditive
- Result (combination with Compound 1, tumor growth) (PHTXM-97Pa (Pancreatic); PHTXM-97Pa (210 mm^3), Compound 1 60 mg/kg once daily Day 1-21, drug 40 mg/kg intraperitoneally Days 1,4,8,11,15,18): subadditive
- Result (combination with Compound 1, tumor growth) (DU-145 (Prostate)): Additive
